Experimental data taken from patent US5605929A, “Methods and compositions for inhibiting 5α-reductase activity” (priority 1995, dated 1997).
Where two headings read alike, the source gives them in different places. Blank lines part the entries; values can stand above or below the compound they belong to.

What was measured:
[1] = test system: 5α-reductase; conditions: cited from earlier work
[2] = biological target: T1, human 5α-reductase isozyme type 1 (Homo sapiens, UniProt P18405); assay: [3H]4-MA binding, human type 1 isozyme expressed in Rat-1A cells; conditions: read-out: % Inhibition of [^3 H]4-MA binding
T1 construct: expressed in transfected cells; host or cells: Rat-1A cells infected with pMV7 retrovirus; microsomes of these cells
T1 sequence (P18405 1-259): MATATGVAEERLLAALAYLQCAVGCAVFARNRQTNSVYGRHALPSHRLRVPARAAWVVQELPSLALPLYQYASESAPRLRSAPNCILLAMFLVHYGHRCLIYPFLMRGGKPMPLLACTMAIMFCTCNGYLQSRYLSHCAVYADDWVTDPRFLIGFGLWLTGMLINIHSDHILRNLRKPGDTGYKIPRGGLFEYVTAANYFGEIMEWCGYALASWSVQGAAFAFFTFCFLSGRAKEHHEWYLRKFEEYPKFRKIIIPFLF
Text: (§1) The cDNAs for the human type 1 and 2 5α-reductases were isolated from human prostate λZAP II™ cDNA libraries using the published sequence of the 5α-reductases, PCR™ and standard library screening techniques (Sambrook et al., 1989). The type 1 and 2 cDNAs correspond to nucleotides 31-870 and 28-829, respectively, of the published sequences for these 5α-reductases (Anderson and Russell, 1990; Anderson et al., 1991). The type 1 and 2 cDNAs were subcloned into the retroviral expression vector pMV7 (Kirschmeier et al., 1988) and high titer stocks of virus containing the type 1 and 2 cDNAs were generated using the packaging cells BOSC 23 293 (Kirschmeier et al., 1988). Rat.-1A cells (Pear et al., 1993) were infected with virus (Topp, 1981) and cells containing integrated retrovirus were selected for G418-SO4 resistance, (Brown and Scott, 1987).
(§2) Microsomes were prepared as described previously (Liang and Liao, 1992) from the liver of adult Sprague-Dawley female rats or Rat-1A cells expressing a specific type of human 5α-reductase. […] The data presented was based on the rate of reaction.
(§3) [^3 H]4-MA binding assay were described in detail previously (Liang and Liao, 1992; Liang et al., 1983). […] The reaction was started by the addition of 25 μl of microsomes (25 μg protein). After 30-60 min incubation at 0° C., the [^3 H]4-MA bound to microsomes was collected on a Whatman GF/F glass fiber, washed and radioactivity determined (Liang and Liao, 1992).

[3] = biological target: T1, human 5α-reductase isozyme type 1; assay: 4-[14C]testosterone reduction, human type 1 isozyme; assay type: biochemical; conditions: for inhibition at 1 µM / inhibition at 3 µM / inhibition at 10 µM / inhibition at 30 µM: read-out: % Inhibition of 5α-reduction; for activity on type 1 isozyme: enzymatic assay
Text: as §1, §2
(§4) The reaction was started by the addition of 25 μl of microsomes (25 μg protein). The mixture was incubated at 37° for 30-60 min and stopped by addition of 0.5 ml of ethyl acetate and mixing for 1 min. The organic solvent extract was removed under vacuum.

[4] = biological target: T2, human 5α-reductase isozyme type 2 (Homo sapiens, UniProt P31213); assay: [3H]4-MA binding, human type 2 isozyme expressed in Rat-1A cells; conditions: read-out: % Inhibition of [^3 H]4-MA binding
T2 construct: expressed in transfected cells; host or cells: Rat-1A cells infected with pMV7 retrovirus; microsomes of these cells
T2 sequence (P31213 1-254): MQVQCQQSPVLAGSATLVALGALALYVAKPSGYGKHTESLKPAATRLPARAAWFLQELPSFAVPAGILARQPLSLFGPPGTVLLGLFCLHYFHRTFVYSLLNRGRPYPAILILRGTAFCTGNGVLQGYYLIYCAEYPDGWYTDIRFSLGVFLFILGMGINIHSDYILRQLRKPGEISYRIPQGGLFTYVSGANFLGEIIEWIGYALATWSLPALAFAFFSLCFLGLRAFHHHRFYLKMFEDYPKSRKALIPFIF
Text: as §1, §2, §3

[5] = test system: 5α-reductase; assay: Catechin gallates in rat liver microsomes or cells expressing type 1 or type 2 5α-reductase; assay type: biochemical; conditions: 40 μM
[6] = biological target: T3, 5α-Reductase of Rat Liver Microsomes (Rattus norvegicus, UniProt P24008); assay: [3H]4-MA binding assay, rat liver microsomes (tea catechins); conditions: read-out: % Inhibition of [^3 H]4-MA binding
T3 sequence (P24008 1-259): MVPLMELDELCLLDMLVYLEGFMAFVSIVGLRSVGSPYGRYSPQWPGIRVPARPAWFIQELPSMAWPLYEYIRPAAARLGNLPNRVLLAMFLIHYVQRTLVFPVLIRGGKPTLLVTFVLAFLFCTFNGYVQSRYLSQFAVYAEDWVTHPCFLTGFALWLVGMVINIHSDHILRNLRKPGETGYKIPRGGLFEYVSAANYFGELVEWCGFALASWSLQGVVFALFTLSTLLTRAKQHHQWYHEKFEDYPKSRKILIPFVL
Outline: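 Microsomes from adult female Sprague-Dawley rat liver or Rat-1A cells expressing human 5α-reductase, 25 μg protein per reaction. Incubation 30–60 min at 0 °C; microsome-bound [3H]4-MA collected on glass-fibre filters and counted. Duplicate or triplicate determinations, values based on reaction rate.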

[7] = biological target: T2, human 5α-reductase isozyme type 2; assay: 4-[14C]testosterone reduction, human type 2 isozyme; assay type: biochemical; conditions: for inhibition at 1 µM / inhibition at 3 µM / inhibition at 10 µM / inhibition at 30 µM / inhibition at 100 µM: read-out: % Inhibition of 5α-reduction; for activity on type 2 isozyme: enzymatic assay, concentrations below 30 μM for ECG/EGCG
Text: as §1, §2, §4

[8] = test system: forehead sebum production; assay: Forehead sebum production (L/R ratio), human male; assay type: in vivo
Protocol: A volunteer was used to test and analyze sebum production from the forehead region. The forehead was washed thoroughly by soap twice and cleaned by 70% isopropyl alcohol twice. Sebum production was measured 30 to 60 minutes later by a sebum meter (Courage/Khazaka Electronic GmbH, Germany). The sebum meter tape probe (7 mm×8 mm) covered 56 mm^2 area in each measurement. Ten measurements were made within the 4 cm square area (16 cm^2) located at the middle of the left or right side forehead between the eyebrow and the hair line.
The sebum meter detected the difference in the transparency of the tape before and after the tape was placed on the forehead for 30 seconds and expressed the difference in an arbitrary number (S-value) between 0 to 300 (or higher). S-values of sebum accumulated on the foreheads of men are usually 200 to 300.

[9] = test system: ventral prostate and preputial organ; conditions: 5 mg ip daily, 14 days
Text: Male Sprague-Dawley rats, 60±5 g body weight, were used. Each group had 6 rats, and all were castrated.

[10] = test system: androgen-dependent organs; assay type: in vivo, rat; conditions: up to 15 mg per day
Protocol: The control rats were injected with 0.3 ml of 30% ethanol.

[11] = biological target: Soybean lipoxygenase (Glycine max, UniProt P08170); conditions: cited from earlier work
Sequence of Soybean lipoxygenase (P08170 whole entry): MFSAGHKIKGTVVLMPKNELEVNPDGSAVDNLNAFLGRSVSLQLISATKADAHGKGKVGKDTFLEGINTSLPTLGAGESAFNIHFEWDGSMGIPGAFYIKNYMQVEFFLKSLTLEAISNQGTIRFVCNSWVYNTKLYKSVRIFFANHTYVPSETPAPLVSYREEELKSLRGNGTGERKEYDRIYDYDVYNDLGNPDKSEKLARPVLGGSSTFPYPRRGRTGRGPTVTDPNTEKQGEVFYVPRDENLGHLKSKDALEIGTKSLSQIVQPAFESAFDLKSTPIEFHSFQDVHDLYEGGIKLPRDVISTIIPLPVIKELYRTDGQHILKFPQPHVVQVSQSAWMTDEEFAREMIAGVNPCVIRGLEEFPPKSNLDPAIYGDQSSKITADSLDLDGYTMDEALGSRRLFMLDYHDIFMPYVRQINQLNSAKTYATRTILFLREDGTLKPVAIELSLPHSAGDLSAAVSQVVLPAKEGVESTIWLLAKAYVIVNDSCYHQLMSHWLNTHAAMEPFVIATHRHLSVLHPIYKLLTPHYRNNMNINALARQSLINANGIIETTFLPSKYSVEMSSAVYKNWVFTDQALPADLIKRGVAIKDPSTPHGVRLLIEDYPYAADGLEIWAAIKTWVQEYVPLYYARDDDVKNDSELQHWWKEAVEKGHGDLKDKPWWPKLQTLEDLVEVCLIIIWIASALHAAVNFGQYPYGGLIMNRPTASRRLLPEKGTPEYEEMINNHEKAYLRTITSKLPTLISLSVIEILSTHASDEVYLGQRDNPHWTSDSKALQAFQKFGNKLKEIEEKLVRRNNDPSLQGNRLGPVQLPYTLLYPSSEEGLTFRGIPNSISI

Structure (SMILES): C[C@]12CC[C@H]3[C@@H](CCC4=CC(=O)CC[C@@]43C)[C@@H]1CC[C@@H]2C(=O)O [4-androstane-3-one-17β-carboxylic acid]
- 5α-reductase inhibition [1]: shown to inhibit 5α-reductase

Structure (SMILES): C[C@]12CC[C@H]3[C@@H](CCC4C(=[N+]=[N-])C(=O)CC[C@@]43C)[C@@H]1CC[C@@H]2CCCO (some centres unmarked) [4-diazo-21-hydroxymethyl-pregnane-3-one]
- 5α-reductase inhibition [1]: shown to inhibit 5α-reductase

- inhibition at 1 µM ([2]; Table 9, 1 μM): < 10%
- inhibition at 3 µM ([2]; Table 9, 3 μM): 13%
- inhibition at 10 µM ([2]; Table 9, 10 μM): < 10%
- inhibition at 30 µM ([2]; Table 9, 30 μM): < 10%
- inhibition at 100 µM ([2]; Table 9, 100 μM): 18%
- inhibition at 1 µM ([3]; Table 10, 1 μM): < 10%
- inhibition at 3 µM ([3]; Table 10, 3 μM): 13%
- inhibition at 10 µM ([3]; Table 10, 10 μM): < 10%
- inhibition at 30 µM ([3]; Table 10, 30 μM): < 10%
- activity on type 1 isozyme [3]: not active
- inhibition at 1 µM ([4]; Table 9, 1 μM): < 10%
- inhibition at 3 µM ([4]; Table 9, 3 μM): < 10%
- inhibition at 10 µM ([4]; Table 9, 10 μM): < 10%
- inhibition at 30 µM ([4]; Table 9, 30 μM): < 10%
- inhibition at 100 µM ([4]; Table 9, 100 μM): < 10%
- inhibition at 5 µM ([6]; Table 8, 5 μM): < 10%
- inhibition at 10 µM ([6]; Table 8, 10 μM): < 10%
- inhibition at 20 µM ([6]; Table 8, 20 μM): < 10%
- inhibition at 40 µM ([6]; Table 8, 40 μM): < 10%
- inhibition at 200 µM ([6]; Table 8, 200 μM): < 10%
- inhibition at 1 µM ([7]; Table 10, 1 μM): < 10%
- inhibition at 3 µM ([7]; Table 10, 3 μM): < 10%
- inhibition at 10 µM ([7]; Table 10, 10 μM): < 10%
- inhibition at 30 µM ([7]; Table 10, 30 μM): < 10%
- inhibition at 100 µM ([7]; Table 10, 100 μM): < 10%
Structure (SMILES): Oc1cc(O)c2c(c1)O[C@H](c1ccc(O)c(O)c1)[C@H](O)C2 [EC, (-)Epicatechin]
- inhibition [5]: less than 25%
- activity on type 2 isozyme [7]: not active
- L/R sebum ratio at end of treatment ([8]; 20 mg twice a day, 6 days): 1.02±0.1
- L/R sebum ratio recovered after treatment stopped ([8]; 10 days after stop): 1.21±0.01
- effect on body weight increase [9]: not EC or γ-LA
- effect on ventral prostate and preputial organ weights [9]: not EC

Structure (SMILES): Oc1cc(O)c2c(c1)O[C@H](c1cc(O)c(O)c(O)c1)[C@H](O)C2 [EGC, (-)Epigallocatechin]
- inhibition at 1 µM [2]: < 10%
- inhibition at 3 µM [2]: < 10%
- inhibition at 10 µM [2]: < 10%
- inhibition at 30 µM [2]: < 10%
- inhibition at 100 µM [2]: 23%
- effect on the body weight [10]: No significant effect
- activity on type 1 isozyme [3]: not active
- inhibition at 1 µM [3]: < 10%
- inhibition at 3 µM [3]: < 10%
- inhibition at 10 µM [3]: < 10%
- inhibition at 30 µM [3]: < 10%
- inhibition at 1 µM [4]: < 10%
- inhibition at 3 µM [4]: < 10%
- inhibition at 10 µM [4]: < 10%
- inhibition at 30 µM [4]: 13%
- inhibition at 100 µM [4]: 14%
- inhibition at 5 µM [6]: < 10%
- inhibition at 10 µM [6]: < 10%
- inhibition at 20 µM [6]: < 10%
- inhibition at 40 µM [6]: < 10%
- inhibition at 200 µM [6]: < 10%
- activity on type 2 isozyme [7]: not active
- inhibition at 1 µM [7]: < 10%
- inhibition at 3 µM [7]: < 10%
- inhibition at 10 µM [7]: < 10%
- inhibition at 30 µM [7]: < 10%
- inhibition at 100 µM [7]: < 10%
- IC50 [11]: 21 µM

Structure (SMILES): Cc1c(O[C@@H](C)c2ccc(CC(C)C)cc2)ccc(C(=O)Nc2ccccc2OCCCC(=O)O)c1C [ONO-3805]
- 5α-reductase inhibition [1]: 5α-reductase inhibitory activity
